In patent US9487559B2, “Compositions comprising multivalent synthetic ligands of surface nucleolin and glycosaminoglycans” (ELRO PHARMA SARL, priority 2010, dated 2016):
“Also recorded” adds a separate entry of the source.

Legend:
PANC1 cells = experiment: PANC1 proliferation, gemcitabine alone or combined with N6L, Cs-C or nanoparticles, MTT assay; assay type: cell-based, human; details: gemcitabine 1 nM to 50 nM, every day for 4 days, 5% FBS
Description: FIG. 22. Nanoparticles, but not N6L, induce the activity of gemcitabine. Similar number of PANC1 cells was treated with increasing concentrations of gemcitabine alone or in combination with N6L, Cs-C, or nanoparticles composed by Cs-C.

[1] = tested on: PANC-1 (Human pancreatic carcinoma) cells; experiment: Anchorage-dependent proliferation of PANC-1 cells, MTT assay; assay type: cell-based; details: whatever the concentration used (0.1-1000 μg/ml)
[2] = tested on: U87-MG (Human glioblastoma-astrocytoma) cells; experiment: Anchorage-dependent proliferation of U87-MG cells, MTT assay; assay type: cell-based; details: whatever the concentration used (0.1-1000 μg/ml)
[3] = tested on: chicken embryo chorioallantoic membrane; experiment: In vivo angiogenesis, chicken embryo chorioallantoic membrane (CAM) assay; details: heparin or CS-C applied alone on the CAM, 48 h
Description: FIG. 21. […] An 1 cm2 area of chicken embryo CAM, restricted by a silicon ring, was incubated with 20 μM N6L or nanoparticles composed by 20 μM N6L and […] heparin or Cs-C. 48 h later, total vessels length was quantified. We observed that N6L had no effect on the in vivo angiogenesis, in contrast to the heparin or Cs-C composed nanoparticles that inhibited the development of new blood vessels (50% and 70%, respectively). Results are mean values±SD from at least 3 independent experiments.
To analyse the effects of N6L pre-incubated with sulfated glycoaminoglycans on in vivo angiogenesis using chicken embryo chorioallantoic membrane assay.
Leghorn fertilized eggs were incubated for 4 days at 37° C. A window was then opened on the eggshell, exposing the CAM. The window was covered with sterile tape, and the eggs were returned to the incubator. On day 9 of embryo development, […] of distilled water as a control or containing either 20 μM N6L, […] or 10 μg/ml CS-C alone or 20 μM N6L pre-incubated with either 10 μg/ml heparin or 10 μg/ml CS-C inside a silicone ring to restricted the area which is 1 cm^2. […] Photographs were taken and the total length of the vessels was quantified using PC image-analysis software (Scion Corporation, USA). […]

| Molecule | inhibition of PANC1 proliferation by gemcitabine alone (PANC1 cells) | effect of GAG alone on PANC-1 proliferation [1] | effect of GAG alone on U87-MG proliferation [2] | effect of GAG alone on in vivo angiogenesis [3] |
| --- | --- | --- | --- | --- |
| Nc1ccn([C@@H]2O[C@H](CO)[C@@H](O)C2(F)F)c(=O)n1 [gemcitabine] | slight inhibition; also recorded: slightly inhibited |  |  |  |
| chondroitin-6-sulfate [Cs-C] |  | no effect | no effect | no effect |
| heparin |  | no effect | no effect | no effect |
